Experimental data as given in EP4817594A1, “SKIN CONDITION IMPROVEMENT COMPOSITION COMPRISING GLUTATHIONE-CONTAINING EXOSOME-LIKE VESICLES” (Cosmax, Inc., priority 2023, dated 2025).
Read-outs that look alike come from different tables or passages of the source.

Protocol: At this time, reduced glutathione was used as a standard.
Each of the diluted standard, the sample of Comparative Example 1 diluted in tertiary distilled water, the sample of Example diluted in tertiary distilled water, and the sample of Comparative Example 2 diluted in tertiary distilled water was filtered through a 0.2 µm-syringe filter, and the filtrate was put into a vial for HPLC. 10 ul was injected into a C18 column, and the samples were eluted at a flow rate of 1 ml/min, and the values were measured by using a DAD detector.

In the case of `N[C@@H](CCC(=O)N[C@@H](CS)C(=O)NCC(=O)O)C(=O)O` [Comparative Example 1, Glutathione], the “Relative concentration of reduced glutathione (GSH)” value (Immediately after loading, 25 °C, light blocked) is reported as 1.00, the “Relative concentration of reduced glutathione (GSH)” value (water, 4380 h) is reported as 0.21 and the “glutathione concentration compared to the initial concentration” value (water, 4380 h) is reported as “about 20%”. The “Relative concentration of reduced glutathione (GSH)” value (water, 8766 h) was 0.06 and the “glutathione concentration compared to the initial concentration” value (water, 8766 h) was “about 6%”.
